Results reported in patent US20140275166A1, “SPINTRAPS AND SPIN LABELS AND THEIR HYDROXYLAMINES FOR PERI- AND POST-MENOPAUSAL SYNDROME” (priority 2013, published 2014).
Where two headings read alike, the source gives them in different places.

How the values were obtained:
[1] = tested on: acute ischemic stroke; conditions: animal models versus humans; cited from earlier work
[2] = tested on: perimenopausal symptoms, including hot flashes, sweating, and discomfort; experiment: Oral treatment of peri- and post-menopausal symptoms in one patient; type: in vivo, human
Procedure: The reduced form of TEMPOL (TEMPOL-H) or equivalent pharmacologically-active spin label/spintrap is prepared by mixing together 2 grams of TEMPOL or a pharmacologically effective amount of another spin-label or spin trap such as methynitrosopropane, 20 grams of ascorbic acid or other reducing compound in 100 ml of distilled water. The formulation is used as is. The solution is slightly-bitter. The formulation can be administered diluted in a suitable liquid such as juice, tea, or coffee. An equivalent dry form as 10 mg of tempol mixed with 100 mg of ascorbic acid or equivalent reducing substance can be easily prepared in capsule or tablet form.
One-half ml of the above solution, comprising 10 mg TEMPOL plus 100 mg ascorbic acid, was administered orally 1-3 times a day to a 50 kg person with perimenopausal symptoms, including hot flashes, sweating, and discomfort.
Parental modes of administration such as intravenous, intramuscular, subcutaneous, intraperitoneal, transrectal and so forth are also possible, as are topical modes of administration such as in lotions, creams, gels, and topically-compatible suspensions and solutions.

[3] = tested on: SHR; conditions: cited from earlier work
[4] = tested on: arterioles from intact and OVE females; conditions: cited from earlier work
[5] = tested on: fibrocystic disease of breast; conditions: in vivo; cited from earlier work
[6] = 10 mg TEMPOL plus 100 mg ascorbic acid orally 1-3 times a day, 50 kg person

CC(C)(C)[N+]([O-])=Cc1ccc(S(=O)(=O)[O-])cc1S(=O)(=O)[O-].[Na+].[Na+] [NXY-059, disulfonyl PBN]
neuroprotective efficacy [1]: effective in animal models, but not in humans

CC(C)(C)[N+]([O-])=Cc1ccccc1 [Phenylbutylnitrone, 1-alpha-phenyl-tert-butyl nitrone]
efficacy on perimenopausal symptoms ([2]; 100 mg dose per day): also effective

CC1(C)CC(O)CC(C)(C)N1[O] [TEMPOL, 4-hydroxy-TEMPO]
efficacy on perimenopausal symptoms ([2]; Tempol itself, without reducing agent, at the same doses): effective at the same doses | antihypertensive response ([3]; male SHR and female SHR given tempol for the first 15 weeks of life): had an antihypertensive response | antihypertensive response ([3]; postmenopausal female SHR): no response was observed | BP lowering by sex and age ([3]; young female versus young male SHR, and after menopause): more effective in lowering the BP of young female than young male SHR and became less effective after menopause | flow-induced increases in NO and subsequent vasodilation [4]: blunted flow-induced increases in NO and subsequent vasodilation

CC1(C)CC(O)CC(C)(C)N1O [TEMPOL-H, the hydroxylamine reduced form of the nitroxide 4-hydroxy-2,2,6,6-tetramethylpiperidin-1-yloxy]
skin changes typical of menopause ([2]; 10 mg TEMPOL plus 100 mg ascorbic acid orally 1-3 times a day): yet to develop the skin changes typical of menopause | effect on perimenopausal symptoms [2, 6]: disappearance of hot flashes, sweating, and discomfort | time to first results of treatment [2, 6]: 1-2 weeks | symptoms on cessation of treatment ([2]; after long-term relief, treatment stopped): symptoms eventually reappear on cessation of treatment | perimenopausal symptoms during earlier TEMPOL-H treatment for fibrocystic disease of breast ([2]; same patient, menses stopped): had not presented with perimenopausal symptoms | symptoms upon resumption of treatment ([2]; treatment resumed after cessation): symptoms disappear | efficacy in fibrocystic disease of breast [5]: effective
